# Experimental data taken from PubChem BioAssay (NCI).
#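 Cultured in 96-well plates, cells were exposed to test compound for 48 hours across five concentrations. The concentration for 50% growth inhibition is given as GI50. TGI: total growth inhibition.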
# Tests used:
# Assay in all cases: NCI tumour cell line growth inhibition, 48 h
# [1] = test system: LOX IMVI melanoma
# [2] = test system: U251 CNS
# [3] = test system: A549 NSCLC
# [4] = test system: PC-3 prostate
# [5] = test system: SN12C renal
# [6] = test system: M14 melanoma
# [7] = test system: HOP-62 NSCLC
# [8] = test system: OVCAR-8 ovarian
# [9] = test system: OVCAR-3 ovarian
# [10] = test system: NCI-H522 lung
# [11] = test system: NCI/ADR-RES ovarian
# [12] = test system: UACC-257 melanoma
# [13] = test system: 786-0 renal
# [14] = test system: NCI-H226 lung
# [15] = test system: HT29 colon
# [16] = test system: CCRF-CEM leukemia
# [17] = test system: SK-OV-3 ovarian
# [18] = test system: OVCAR-4 ovarian
# [19] = test system: SF-268 CNS
# [20] = test system: EKVX NSCLC
# [21] = test system: ACHN renal
# [22] = test system: A498 renal
# [23] = test system: HL-60(TB) leukemia
# [24] = test system: MDA-MB-435
# [25] = test system: SK-MEL-28 melanoma
# [26] = test system: T-47D breast
# [27] = test system: SF-295 CNS
# [28] = test system: UACC-62 melanoma
# [29] = test system: DU-145 prostate
# [30] = test system: K-562 leukemia
# [31] = test system: TK-10 renal
# [32] = test system: MOLT-4 leukemia
# [33] = test system: SK-MEL-5 melanoma
# [34] = test system: HCT-116 colon
# [35] = test system: SW-620 colon
# [36] = test system: NCI-H460 lung
# [37] = test system: HS 578T breast
# [38] = test system: NCI-H23 lung
# [39] = test system: SF-539 CNS
# [40] = test system: IGROV1 ovarian
# [41] = test system: CAKI-1 renal
# [42] = test system: SR leukemia
# [43] = test system: OVCAR-5 ovarian
# [44] = test system: MALME-3M melanoma
# [45] = test system: MCF7 breast
# [46] = test system: RPMI-8226 leukemia
# [47] = test system: RXF 393 renal
# [48] = test system: KM12 colon
# [49] = test system: HOP-92 NSCLC
# [50] = test system: HCC-2998 colon
# [51] = test system: HCT-15 colon
# [52] = test system: MDA-MB-231 breast
# [53] = test system: SNB-19 CNS
# [54] = test system: SK-MEL-2 melanoma
# [55] = test system: COLO 205 colon
# [56] = test system: SNB-75 CNS
# [57] = test system: BT-549 breast
# [58] = test system: UO-31 renal
smiles,measurement,setting,value
Fc1c(F)c(F)c2c(c1F)CSc1nc3ccccc3n1-2,TGI,[1],> 100 µM
same,TGI,[2],> 100 µM
same,TGI,[3],> 100 µM
same,TGI,[4],> 100 µM
same,TGI,[5],> 100 µM
same,TGI,[6],> 100 µM
same,TGI,[7],> 100 µM
same,TGI,[8],> 100 µM
same,TGI,[9],> 100 µM
same,TGI,[10],> 100 µM
same,TGI,[11],> 100 µM
same,TGI,[12],> 100 µM
same,TGI,[13],> 100 µM
same,TGI,[14],> 100 µM
same,TGI,[15],> 100 µM
same,TGI,[16],> 100 µM
same,TGI,[17],> 100 µM
same,TGI,[18],> 100 µM
same,TGI,[19],> 100 µM
same,TGI,[20],> 100 µM
same,TGI,[21],> 100 µM
same,TGI,[22],> 100 µM
same,TGI,[23],> 100 µM
same,TGI,[24],> 100 µM
same,TGI,[25],> 100 µM
same,TGI,[26],> 100 µM
same,TGI,[27],> 100 µM
same,TGI,[28],> 100 µM
same,TGI,[29],> 100 µM
same,TGI,[30],> 100 µM
same,TGI,[31],> 100 µM
same,TGI,[32],> 100 µM
same,TGI,[33],> 100 µM
same,TGI,[34],> 100 µM
same,TGI,[35],> 100 µM
same,TGI,[36],> 100 µM
same,TGI,[37],> 100 µM
same,TGI,[38],> 100 µM
same,TGI,[39],> 100 µM
same,TGI,[40],> 100 µM
same,TGI,[41],> 100 µM
same,TGI,[42],> 100 µM
same,TGI,[43],> 100 µM
same,TGI,[44],> 100 µM
same,TGI,[45],> 100 µM
same,TGI,[46],> 100 µM
same,TGI,[47],> 100 µM
same,TGI,[48],> 100 µM
same,TGI,[49],> 100 µM
same,TGI,[50],> 100 µM
same,TGI,[51],> 100 µM
same,TGI,[52],> 100 µM
same,TGI,[53],> 100 µM
same,TGI,[54],> 100 µM
same,TGI,[55],> 100 µM
same,TGI,[56],> 100 µM
COc1ccc(-c2nnc(COc3ccc(Cl)cc3Cl)o2)cc1OC,GI50,[1],3.16 µM
same,TGI,[1],> 100 µM
same,GI50,[2],4.36 µM
same,TGI,[2],17.6 µM
same,GI50,[4],6.4 µM
same,TGI,[4],> 100 µM
same,GI50,[7],2.37 µM
same,TGI,[7],7.9 µM
same,GI50,[8],4.02 µM
same,TGI,[8],> 100 µM
same,GI50,[10],3.28 µM
same,TGI,[10],18.3 µM
same,GI50,[11],3.44 µM
same,TGI,[11],> 100 µM
same,GI50,[13],1.8 µM
same,TGI,[13],3.32 µM
same,GI50,[14],3.42 µM
same,TGI,[14],30.3 µM
same,GI50,[19],5.95 µM
same,TGI,[19],96.7 µM
same,GI50,[20],4.39 µM
same,TGI,[20],> 100 µM
same,GI50,[22],2.78 µM
same,TGI,[22],7.22 µM
same,GI50,[23],> 100 µM
same,TGI,[23],> 100 µM
same,GI50,[27],13.5 µM
same,TGI,[27],70.6 µM
same,GI50,[28],3.35 µM
same,TGI,[28],> 100 µM
same,GI50,[30],> 100 µM
same,TGI,[30],> 100 µM
same,GI50,[31],3.15 µM
same,TGI,[31],6.61 µM
same,GI50,[57],16.9 µM
same,TGI,[57],76.5 µM
same,GI50,[32],8.3 µM
same,TGI,[32],> 100 µM
same,GI50,[33],3.27 µM
same,TGI,[33],> 100 µM
same,GI50,[37],3.73 µM
same,TGI,[37],96.2 µM
same,GI50,[38],6.18 µM
same,TGI,[38],> 100 µM
same,GI50,[39],5.52 µM
same,TGI,[39],41.1 µM
same,GI50,[40],4.22 µM
same,TGI,[40],> 100 µM
same,GI50,[43],3.53 µM
same,TGI,[43],> 100 µM
same,GI50,[45],5.45 µM
same,TGI,[45],> 100 µM
same,GI50,[47],2.14 µM
same,TGI,[47],4.59 µM
same,GI50,[48],> 100 µM
same,TGI,[48],> 100 µM
same,GI50,[49],2.16 µM
same,TGI,[49],4.91 µM
same,GI50,[50],> 100 µM
same,TGI,[50],> 100 µM
same,GI50,[51],> 100 µM
same,TGI,[51],> 100 µM
same,GI50,[53],6.69 µM
same,TGI,[53],> 100 µM
same,GI50,[54],7.79 µM
same,TGI,[54],37.5 µM
same,GI50,[56],1.61 µM
same,TGI,[56],3.36 µM
O=C(Nc1ccc(-n2cc(-c3ccncc3)c(-c3ccc(O)c(Cl)c3)n2)cc1)c1cc(C(F)(F)F)cc(C(F)(F)F)c1,GI50,[1],5.59 µM
same,TGI,[1],> 25 µM
same,GI50,[2],4.55 µM
same,TGI,[2],> 25 µM
same,GI50,[3],9.11 µM
same,TGI,[3],> 25 µM
same,GI50,[4],5.02 µM
same,TGI,[4],> 25 µM
same,GI50,[5],8.93 µM
same,TGI,[5],> 25 µM
same,GI50,[6],3.58 µM
same,TGI,[6],9.58 µM
same,GI50,[7],12.5 µM
same,TGI,[7],> 25 µM
same,GI50,[8],11.8 µM
same,TGI,[8],> 25 µM
same,GI50,[9],7.42 µM
same,TGI,[9],> 25 µM
same,GI50,[10],4.6 µM
same,TGI,[10],> 25 µM
same,GI50,[11],11.1 µM
same,TGI,[11],> 25 µM
same,GI50,[12],14.7 µM
same,TGI,[12],> 25 µM
same,GI50,[14],> 25 µM
same,TGI,[14],> 25 µM
same,GI50,[15],5.01 µM
same,TGI,[15],13.4 µM
same,GI50,[16],4.09 µM
same,TGI,[16],21.8 µM
same,GI50,[18],8.12 µM
same,TGI,[18],> 25 µM
same,GI50,[19],9.33 µM
same,TGI,[19],> 25 µM
same,GI50,[20],11.1 µM
same,TGI,[20],> 25 µM
same,GI50,[21],8.41 µM
same,TGI,[21],> 25 µM
same,GI50,[22],14.1 µM
same,TGI,[22],> 25 µM
same,GI50,[23],5.8 µM
same,TGI,[23],18 µM
same,GI50,[24],5.79 µM
same,TGI,[24],> 25 µM
same,GI50,[25],6.07 µM
same,TGI,[25],23.3 µM
same,GI50,[26],12.2 µM
same,TGI,[26],> 25 µM
same,GI50,[27],4.71 µM
same,TGI,[27],15 µM
same,GI50,[28],5.35 µM
same,TGI,[28],12.9 µM
same,GI50,[29],9.69 µM
same,TGI,[29],> 25 µM
same,GI50,[30],4.75 µM
same,TGI,[30],> 25 µM
same,GI50,[31],5.87 µM
same,TGI,[31],> 25 µM
same,GI50,[32],3.89 µM
same,TGI,[32],15.5 µM
same,GI50,[33],5.68 µM
same,TGI,[33],19 µM
same,GI50,[34],6.24 µM
same,TGI,[34],> 25 µM
same,GI50,[35],11.1 µM
same,TGI,[35],> 25 µM
same,GI50,[36],7.23 µM
same,TGI,[36],> 25 µM
same,GI50,[37],6.1 µM
same,TGI,[37],> 25 µM
same,GI50,[38],9.8 µM
same,TGI,[38],> 25 µM
same,GI50,[39],3.57 µM
same,TGI,[39],12.9 µM
same,GI50,[40],12.7 µM
same,TGI,[40],> 25 µM
same,GI50,[41],6.57 µM
same,TGI,[41],> 25 µM
same,GI50,[42],8.79 µM
same,TGI,[42],> 25 µM
same,GI50,[43],9.18 µM
same,TGI,[43],> 25 µM
same,GI50,[44],4.66 µM
same,TGI,[44],16.7 µM
same,GI50,[45],8.46 µM
same,TGI,[45],> 25 µM
same,GI50,[46],2.34 µM
same,TGI,[46],13.5 µM
same,GI50,[47],3.1 µM
same,TGI,[47],6.58 µM
same,GI50,[48],7.85 µM
same,TGI,[48],> 25 µM
same,GI50,[49],1.04 µM
same,TGI,[49],13.7 µM
same,GI50,[50],9.89 µM
same,TGI,[50],> 25 µM
same,GI50,[51],4.84 µM
same,TGI,[51],15.5 µM
same,GI50,[52],2.92 µM
same,TGI,[52],6.8 µM
same,GI50,[53],11.9 µM
same,TGI,[53],> 25 µM
same,GI50,[58],5.3 µM
same,TGI,[58],> 25 µM
same,GI50,[54],5.08 µM
same,TGI,[54],12.7 µM
same,GI50,[55],10.8 µM
same,TGI,[55],> 25 µM
same,GI50,[56],3.73 µM
same,TGI,[56],> 25 µM
